Tested on: uterine fibroids
Experiment: Phase 2 study of orally administered Formulation B in women with uterine fibroids
Type: in vivo, human
Excerpt: After menses occurred, a second 18 week course of treatment followed.

With COCC(=O)[C@@]1(OC(C)=O)CC[C@H]2[C@@H]3CCC4=CC(=O)CCC4=C3[C@@H](c3ccc(N(C)C)cc3)C[C@@]21C [CDB-4124, 21-methoxy-17a-acetoxy-11β-(4 N, N-dimethylaminophenyl)-19-norpregna-4,9-diene-3,20-dione] the “reduction in fibroid size (volume) compared to baseline” value (oral 12 mg once per day, after two 18 week cycles, median, p=0.0004 vs placebo) was 64.9%, the “subjects who achieved amenorrhea” value (oral 12 mg once per day, end of second 18 week course (36 weeks total active treatment)) was 100% and the “improvement in Uterine Fibroid Symptom Severity Score (UFSQOL), LOCF median” value (oral 12 mg once per day, p=0.0211 vs placebo) was 70.9%. The “subjects who achieved amenorrhea” value (vaginally treated subjects (comparison)) was 50%.

From patent publication US20200069702A1, “ORAL PHARMACEUTICAL COMPOSITIONS COMPRISING AN UNMICRONIZED SELECTIVE PROGESTERONE RECEPTOR AS ACTIVE AGENT” (Repros Therapeutics Inc., priority 2016, published 2020)
